Experimental data published in ChEMBL document CHEMBL1143608, “Novel C-17-heteroaryl steroidal CYP17 inhibitors/antiandrogens: synthesis, in vitro biological activity, pharmacokinetics, and antitumor activity in the LAPC4 human prostate cancer xenograft model” (J Med Chem, 2005).

Columns and labels:
[1] = Half life at 50 mg/kg upon subcutaneous administration was determined in mouse; n = 5; format: ADME, organism-based; design: dose 50 mg/kg, route subcutaneous; details: in vivo, sc
[2] = molecular target: T1, 3-oxo-5-alpha-steroid 4-dehydrogenase 2 (Homo sapiens) (UniProt P31213); assay: (§1) Inhibition of [1-beta-2beta-3H]- -testosterone binding to human steroid 5-alpha-reductase type 2 of BPH tissue at 10 uM; format: functional
T1 sequence (whole entry): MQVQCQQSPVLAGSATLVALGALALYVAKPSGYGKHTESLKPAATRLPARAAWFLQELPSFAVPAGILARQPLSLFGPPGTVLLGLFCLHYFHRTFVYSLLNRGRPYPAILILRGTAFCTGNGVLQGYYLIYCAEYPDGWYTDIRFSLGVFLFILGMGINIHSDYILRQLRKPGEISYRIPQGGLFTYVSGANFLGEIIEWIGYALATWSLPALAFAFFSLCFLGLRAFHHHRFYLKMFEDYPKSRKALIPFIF

[3] = Volume of distribution at 100 mg/kg upon subcutaneous administration was determined in mouse; n = 5; format: ADME, organism-based; design: dose 100 mg/kg, route subcutaneous; details: in vivo, sc
[4] = Time required for maximum concentration at 50 mg/kg upon subcutaneous administration was determined in mouse; n = 5; format: ADME, organism-based; design: dose 50 mg/kg, route subcutaneous; details: in vivo, sc
[5] = Half life at 100 mg/kg upon subcutaneous administration was determined in mouse; n = 5; format: ADME, organism-based; design: dose 100 mg/kg, route subcutaneous; details: in vivo, sc
[6] = Maximum concentration at 100 mg/kg upon subcutaneous administration was determined in mouse; n = 5; format: ADME, organism-based; design: dose 100 mg/kg, route subcutaneous; details: in vivo, sc
[7] = molecular target: T2, 3-oxo-5-alpha-steroid 4-dehydrogenase 1 (Homo sapiens) (UniProt P18405); assay: Inhibition of human steroid 5-alpha-reductase type I expressed in DU-145 cells using [1-beta-3H]-androstenedione at a concentration of 10 uM; format: functional, cell-based
T2 sequence (whole entry): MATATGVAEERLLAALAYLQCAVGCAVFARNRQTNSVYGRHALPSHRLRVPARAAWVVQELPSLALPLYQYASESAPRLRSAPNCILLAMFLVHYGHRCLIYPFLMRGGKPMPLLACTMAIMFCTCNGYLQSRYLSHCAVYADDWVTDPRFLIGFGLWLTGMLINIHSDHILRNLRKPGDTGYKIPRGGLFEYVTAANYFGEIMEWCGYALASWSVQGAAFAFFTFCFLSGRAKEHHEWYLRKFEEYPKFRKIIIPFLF

[8] = Area under curve at 50 mg/kg upon subcutaneous administration was determined in mouse; n = 5; format: ADME, organism-based; design: dose 50 mg/kg, route subcutaneous; details: in vivo, sc
[9] = Volume of distribution at 50 mg/kg upon subcutaneous administration was determined in mouse; n = 5; format: ADME, organism-based; design: dose 50 mg/kg, route subcutaneous; details: in vivo, sc
[10] = Maximum concentration at 50 mg/kg upon subcutaneous administration was determined in mouse; n = 5; format: ADME, organism-based; design: dose 50 mg/kg, route subcutaneous; details: in vivo, sc
[11] = Time required for maximum concentration at 100 mg/kg upon subcutaneous administration was determined in mouse; n = 5; format: ADME, organism-based; design: dose 100 mg/kg, route subcutaneous; details: in vivo, sc
[12] = […] at 50 mg/kg upon subcutaneous administration was determined in mouse; n = 5; format: ADME, organism-based; design: dose 50 mg/kg, route subcutaneous; details: in vivo, sc
[13] = Area under curve at 100 mg/kg upon subcutaneous administration was determined in mouse; n = 5; format: ADME, organism-based; design: dose 100 mg/kg, route subcutaneous; details: in vivo, sc
[14] = Elimination rate constant at 50 mg/kg upon subcutaneous administration was determined in mouse; n = 5; format: ADME, organism-based; design: dose 50 mg/kg, route subcutaneous; details: in vivo, sc
[15] = molecular target: T3, 3-oxo-5-alpha-steroid 4-dehydrogenase 1 (Homo sapiens, UniProt P18405); assay: Inhibition of [1-beta-3H]-androstenedione binding to human steroid 5-alpha-reductase type I expressed in DU-145 cells at 10 uM; format: functional, cell-based
T3 sequence (P18405 whole entry): T2 sequence (whole entry)

[16] = molecular target: T4, 3-oxo-5-alpha-steroid 4-dehydrogenase 2 (Homo sapiens, UniProt P31213); assay: as §1; format: functional
T4 sequence (P31213 whole entry): T1 sequence (whole entry)

[17] = molecular target: T2, 3-oxo-5-alpha-steroid 4-dehydrogenase 1 (Homo sapiens); assay: Inhibition of [1-beta-3H]-androstenedione binding to human steroid 5-alpha-reductase type I expressed in DU-145 cells at 10 uM; ni=no inhibition up to 10 uM; format: functional, cell-based

| T1/2 [1] [min] | inhibition [2] [%] | Vd [3] [L/kg] | T1/2 [5] [min] | Cmax [6] [µg/mL] | inhibition [7] [%] | Tmax [11] [min] | AUC [13] [µg·h/mL] | Kel [14] [h⁻¹] | inhibition [17] | SMILES | Tmax [4] [min] | AUC [8] [µg·h/mL] | Vd [9] [L/kg] | Cmax [10] [µg/mL] | MRT [12] [min] | half-life [1] [min] | IC50 [15] [µM] | IC50 [16] [µM] | k el [14] [s⁻¹] |
| --- | --- | --- | --- | --- | --- | --- | --- | --- | --- | --- | --- | --- | --- | --- | --- | --- | --- | --- | --- |
| 44.17 | 53 | 3.27639 | 36.6 | 32.2 | 4 | 30 | 30.2 | 0.942 | – | C[C@]12CC[C@H](O)CC1=CCC1C2CC[C@]2(C)C(n3cnc4ccccc43)=CCC12 (some centres not stated) | 30 | 24 | 2.09899 | 16.8 | 65.4 | – | – | – | – |
| – | 56 | – | – | – | 21 | – | – | – | – | C[C@]12CCC(=O)C=C1CCC1C2CC[C@]2(C)C(n3nnc4ccccc43)=CCC12 (some centres not stated) | – | – | – | – | – | – | – | – | – |
| – | – | – | – | – | – | – | – | – | – | C[C@]12CCC(=O)C=C1CCC1C2CC[C@]2(C)C(n3cnc4ccccc43)=CCC12 (some centres not stated) | 60 | 10.8 | 4.207 | 5.15 | 80 | 37.9 | 0.77 | 0.48 | 0.000305 |
| – | 17 | – | – | – | – | – | – | – | No inhibition | C[C@]12CC[C@H](O)CC1=CCC1C2CC[C@]2(C)C(n3nnc4ccccc43)=CCC12 (some centres not stated) | – | – | – | – | – | – | – | – | – |
